pIC50: −log10 of the molar value.
Biological target: T1, human chemokine receptor 2 isoform B (Homo sapiens, UniProt P41597)
T1 construct: host or cells: CHOK1-CCR2B-A5 cells (CHO-K1)
T1 sequence (P41597 1-360 isoform P41597-2): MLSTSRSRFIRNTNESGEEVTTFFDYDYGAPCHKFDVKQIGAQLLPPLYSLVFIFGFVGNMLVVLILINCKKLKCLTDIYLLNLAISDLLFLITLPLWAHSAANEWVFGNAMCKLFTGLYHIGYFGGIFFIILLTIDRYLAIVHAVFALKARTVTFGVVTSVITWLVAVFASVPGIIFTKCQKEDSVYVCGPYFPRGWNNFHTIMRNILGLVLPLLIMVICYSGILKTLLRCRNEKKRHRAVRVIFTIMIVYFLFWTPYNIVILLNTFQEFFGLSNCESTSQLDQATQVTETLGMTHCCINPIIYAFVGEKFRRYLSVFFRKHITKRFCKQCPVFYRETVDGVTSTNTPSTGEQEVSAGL
Assay: Calcium mobilization assay (FLIPR, antagonist activity against MCP-1)
Type: cell-based
Details: Ca mobilisation assay, CHOK1-CCR2B-A5 cells, inhibition of calcium increase induced by 20 nM MCP-1
Experimental: Calcium Mobilization Assay
CHOK1-CCR2B-A5 cells (from Euroscreen) stably overexpressing the human chemokine receptor 2 isoform B were cultured in Nutrient Hams F12 medium supplemented with 5% FBS, 100 U/ml penicillin, 100 μg/ml streptomycin, 400 μg/ml G418 and 5 μg/ml puromycin.
For the assay cells were grown overnight in 384-well black clear flat bottom polystyrene plates (Costar) at 37° C. at 5% CO2. After washing with DMEM, 20 mM Hepes, 2.5 mM probenecid, 0.1% BSA (DMEM assay buffer) cells were loaded with 4 μM Fluo-4 in the same DMEM assay buffer for 2 hours at 30° C. Excess dye was removed and cells were washed with DMEM assay buffer. 384-well compound plates were prepared with DMEM assay buffer/0.5% DMSO with or without various concentrations of test compounds. Usually compounds were tested for agonist and antagonist activity.
Test compounds were added to the assay plate and agonist activity was monitored as fluorescence for 80 seconds with a FLIPR (488 nm excitation; 510-570 nm emission; Molecular Devices). After 20-30 min. of incubation at 30° C., 20 nM MCP-1 (R&D; Roche) was added and fluorescence was monitored again for 80 seconds. Increases in intracellular calcium are reported as maximum fluorescence after agonist exposure minus basal fluorescence before exposure. Antagonist activity is indicated as inhibitor concentration required for 50% inhibition of specific calcium increases.

SMILES	pIC50
CC1(O)CCN(C(=O)CCN2CCN(C(=O)/C=C/c3ccc(Cl)c(Cl)c3)CCC2=O)CC1 [Example 73, 1-[(E)-3-(3,4-Dichloro-phenyl)-acryloyl]-4-[3-(4-hydroxy-4-methyl-piperidin-1-yl)-3-oxo-propyl]-[1,4]diazepan-5-one]	7.18
O=C(/C=C/c1ccc(Cl)c(Cl)c1)N1CCC(=O)N(CCC(=O)N2CCCCC2)CC1 [Example 82, 1-[(E)-3-(3,4-Dichloro-phenyl)-acryloyl]-4-(3-oxo-3-piperidin-l-yl-propyl)-[1,4]diazepan-5-one]	5.74
C[C@H]1C(=O)N([C@@H](CCC(=O)N2CCC3(CC3)[C@H](O)C2)C(=O)O)CCN1C(=O)Nc1ccc(OC(F)(F)F)c(Cl)c1 [Example 56, Lithium; (S)-2-[(S)-4-(3-chloro-4-trifluoromethoxy-phenylcarbamoyl)-3-methyl-2-oxo-piperazin-1-yl]-5-((S)-4-hydroxy-6-aza-spiro[2.5]oct-6-yl)-5-oxo-pentanoate]	6.41
C[C@H]1C(=O)N(CCC(=O)N2CCCC(O)C2)CCN1C(=O)Nc1ccc(Cl)c(Cl)c1 (stereo partly drawn) [Example 17, (S)-4-[3-((R,S)-3-Hydroxy-piperidin-1-yl)-3-oxo-propyl]-2-methyl-3-oxo-piperazine-1-carboxylic acid (3,4-dichloro-phenyl)-amide]	5.50
C[C@H]1C(=O)N(C[C@H](O)CC(=O)N2CCC3(CC3)[C@H](O)C2)CCN1C(=O)Nc1ccc(OC(F)(F)F)c(Cl)c1 [Example 46, (S)-4-[(R)-2-hydroxy-4-((S)-4-hydroxy-6-aza-spiro[2.5]oct-6-yl)-4-oxo-butyl]-2-methyl-3-oxo-piperazine-1-carboxylic acid (3-chloro-4-trifluoromethoxy-phenyl)-amide]	8.38
C[C@H]1C(=O)N(CCCC(=O)N2CCC3(CC3)[C@H](O)C2)C(C(N)=O)CN1C(=O)Nc1ccc(Cl)c(Cl)c1 (stereo partly drawn) [Example 121, (3RS,6S)-4-[4-((S)-4-Hydroxy-6-aza-spiro[2.5]oct-6-yl)-4-oxo-butyl]-6-methyl-5-oxo-piperazine-1,3-dicarboxylic acid 3-amide 1-[(3,4-dichloro-phenyl)-amide]]	7.96
COC(=O)C(CC(=O)N(C)C)N1CCN(C(=O)/C=C/c2cccc(Cl)c2)CCC1=O (racemic) [Example 12, rac-(2-{4-[(E)-3-(3-Chloro-phenyl)-acryloyl]-7-oxo-[1,4]diazepan-1-yl}-N,N-dimethyl-succinamic acid methyl ester)]	5.71
C[C@H]1C(=O)N(CCC(F)C(=O)N2CCC3(CC3)[C@H](O)C2)CCN1C(=O)Nc1ccc(C(F)(F)F)c(Cl)c1 (stereo partly drawn) [Example 136, (S)-4-[(R,S)-3-Fluoro-4-((S)-4-hydroxy-6-aza-spiro[2.5]oct-6-yl)-4-oxo-butyl]-2-methyl-3-oxo-piperazine-1-carboxylic acid (3-chloro-4-trifluoromethyl-phenyl)-amide]	8.33
C[C@H]1C(=O)N(CCCC(=O)N2CCC3(CC3)[C@H](O)C2)CCN1C(=O)Nc1cccc(C(F)(F)F)c1 [Example 28, (S)-4-[4-((S)-4-Hydroxy-6-aza-spiro[2.5]oct-6-yl)-4-oxo-butyl]-2-methyl-3-oxo-piperazine-1-carboxylic acid (3-trifluoromethyl-phenyl)-amide]	7.26
C[C@@H]1CN(CCCC(=O)N2CCC3(CC3)[C@H](O)C2)C(=O)CCN1c1ccc(C(F)(F)F)c(Cl)c1 [Example 66, (R)-1-(3-Chloro-4-trifluoromethyl-phenyl)-4-[4-((S)-4-hydroxy-6-aza-spiro[2.5]oct-6-yl)-4-oxo-butyl]-2-methyl-[1,4]diazepan-5-one]	6.96
C[C@H]1C(=O)N(C[C@H](O)CC(=O)N2CCC3(CC3)[C@H](O)C2)CCN1C(=O)Nc1ccc(C(F)(F)F)c(C(F)(F)F)c1 [Example 49, (S)-4-[(R)-2-hydroxy-4-((S)-4-hydroxy-6-aza-spiro[2.5]oct-6-yl)-4-oxo-butyl]-2-methyl-3-oxo-piperazine-1-carboxylic acid (3,4-bis-trifluoromethyl-phenyl)-amide]	8.24
COC(=O)C(CC(=O)N1C[C@@H](C)C[C@H](O)C1)N1CCN(C(=O)/C=C/c2ccc(Cl)c(Cl)c2)CCC1=O (stereo partly drawn) [Example 9, (R,S)-2-{4-[(E)-3-(3,4-Dichloro-phenyl)-acryloyl]-7-oxo-[1,4]diazepan-1-yl}-4-((3S,5S)-3-hydroxy-5-methyl-piperidin-1-yl)-4-oxo-butyric acid methyl ester]	5.63
COC(=O)[C@H](CCC(=O)N1CCC2(CC2)[C@H](O)C1)N1CCN(C(=O)Nc2ccc(C(F)(F)F)c(Cl)c2)[C@@H](C)C1=O [Example 52, (S)-2-[(S)-4-(3-Chloro-4-trifluoromethyl-phenylcarbamoyl)-3-methyl-2-oxo-piperazin-1-yl]-5-((S)-4-hydroxy-6-aza-spiro[2.5]oct-6-yl)-5-oxo-pentanoic acid methyl ester]	6.13
CC1(CO)CCN(C(=O)CCN2CCN(C(=O)/C=C/c3ccc(Cl)c(Cl)c3)CCC2=O)CC1 [Example 87, 1-[(E)-3-(3,4-Dichloro-phenyl)-acryloyl]-4-[3-(4-hydroxymethyl-4-methyl-piperidin-1-yl)-3-oxo-propyl]-[1,4]diazepan-5-one]	6.47
O=C(/C=C/c1ccc(Cl)c(Cl)c1)N1CCC(=O)N(CCC(=O)N2CC[C@H](O)[C@H](O)C2)CC1 (racemic) [Example 2, 1-[(E)-3-(3,4-Dichloro-phenyl)-acryloyl]-4-[3-((3RS,4SR)-3,4-dihydroxy-piperidin-1-yl)-3-oxo-propyl]-[1,4]diazepan-5-one]	5.71
C[C@H]1C(=O)N(CCCC(=O)N2CCC(C(F)(F)F)CC2)CCN1C(=O)Nc1cccc(Cl)c1 [Example 106, (S)-2-Methyl-3-oxo-4-[4-oxo-4-(4-trifluoromethyl-piperidin-1-yl)-butyl]-piperazine-1-carboxylic acid (3-chloro-phenyl)-amide]	5.51
C[C@H]1C(=O)N(CCCC(=O)N2CCC(C)(C)[C@H](O)C2)CCN1C(=O)Nc1ccc(Cl)c(Cl)c1 [Example 38, (S)-4-[4-((S)-3-hydroxy-4,4-dimethyl-piperidin-1-yl)-4-oxo-butyl]-2-methyl-3-oxo-piperazine-1-carboxylic acid (3,4-dichloro-phenyl)-amide]	7.66
O=C(/C=C/c1ccc(Cl)c(Cl)c1)N1CCC(=O)N(CC(=O)N2CCCCC2)CC1 [Example 95, 1-[(E)-3-(3,4-Dichloro-phenyl)-acryloyl]-4-(2-oxo-2-piperidin-1-yl-ethyl)-[1,4]diazepan-5-one]	6.82
CN1CCN(C(=O)CCN2CCN(C(=O)/C=C/c3ccc(Cl)c(Cl)c3)CCC2=O)CC1=O [Example 80, 1-[(E)-3-(3,4-Dichloro-phenyl)-acryloyl]-4-[3-(4-methyl-3-oxo-piperazin-1-yl)-3-oxo-propyl]-[1,4]diazepan-5-one]	5.49
C[C@H]1C(=O)N(CCCC(=O)N2CCC3(CC3)[C@H](O)C2)CCN1c1ccc(Cl)c(Cl)c1 [Example 59, (S)-4-(3,4-dichloro-phenyl)-1-[4-((S)-4-hydroxy-6-aza-spiro[2.5]oct-6-yl)-4-oxo-butyl]-3-methyl-piperazin-2-one]	7.63
O=C1NCC2(CCN(C(=O)CCN3CCN(C(=O)/C=C/c4ccc(Cl)c(Cl)c4)CCC3=O)CC2)O1 [Example 90, 8-(3-{4-[(E)-3-(3,4-Dichloro-phenyl)-acryloyl]-7-oxo-[1,4]diazepan-1-yl}-propionyl)-1-oxa-3,8-diaza-spiro[4.5]decan-2-one]	6.74

— US8445674B2, “Heterocyclyl compounds” (Hoffmann-La Roche Inc, priority 2009, dated 2013)
